The EC50 is the concentration giving half of the maximal effect. Read a low EC50 as an effect from little substance. What is called Tmax is the time from dosing to the highest level. Usually IC50 stands for the concentration that gives 50% inhibition. The low end stands for greater potency, the high end for weaker potency.

In data set [1] the test system is HepG2 human hepatoma cells. The data set can be described thus: HepG2 cytotoxicity, MTS cell proliferation assay. The data set is classed as cell-based. To be noted: 48 h, n=1. As to the method:
(§1) Select compounds described herein were evaluated for structure-activity analyses for anti-plasmodial activity in vitro. For Dd2 EC50 (M), calculations were for n=3. For HepG2 EC50 (M), calculations were for n=1. For the human microsomal stability determination, t was 60 minutes.
Selected compounds were evaluated for cytotoxicity using HepG2 human hepatoma cells. A 384-well clear bottom plate was seeded with 2,500 cells/well and incubated for 24 h. Serial dilutions of the compound (were added to the plate and plates were incubated for an additional 48 h. Viability of cells were assessed by MTS [(3-(4,5-dimethylthiazol-2-yl)-5-(3-carboxymethoxyphenyl)-2-(4-sulfophenyl)-2H-tetrazolium) cell proliferation assay (CellTiter 96® Aqueous non-radioactive cell proliferation assay, Promega) (See Cory et al., Cancer Communications, 3, 1991, p. 207-212).

The subject of another data set is P. falciparum Dd2. The data set can be described thus: Anti-plasmodial growth inhibition, SYBR green I-based DNA quantification. The data set is classed as cell-based. To be noted: Plasmodium falciparum, 72 h incubation, n=3. The method, then:
as §1
Different dilutions of the compound in RPMI 1640 (Life Technologies) from a stock of 10 mM in dimethyl sulfoxide (DMSO) were added to the culture at a 1% parasitemia and 2% hematocrit in 96-well black plates (Santa Cruz Biotechnology). Maximum DMSO concentration in the culture never exceeded 0.25%. Chloroquine at 1 μM was used as a positive control to determine the baseline value. Following 72 h incubation at 37° C., the ability of the compounds to inhibit growth of the parasite was determined by a SYBR green I-based DNA quantification assay (See Bennett et al., 2004, Chemother. 48, 1807-1810; see also Johnson et al., 2007, Antimicrob. Agents. Chemother. 51, 1926-1933; Smilkstein et al., 2004, Antimicrob. Agents. Chemother. 48, 1803-1806). EC50 was calculated (n=3) from a dose response curve that was generated from a concentration range of 0-20 μM using GraphPad Prism v5.0.

Data set [2] is described as follows: Plasma pharmacokinetics and liver distribution study in female BALB/c mice. The data set is classed as in vivo, mouse. Particulars: 100 mg/kg, female BALB/c mice; for Tmax: mouse, plasma, read-out: Tmax (plasma). As to the method: A plasma pharmacokinetics and liver distribution study of selected compounds, including Pyrrolopyridine-008 (2015-foleyc-216), Pyrrolopyridine-D20-ent (2015-foleyc-217), and Pyrrolopyridine-M03 (2015-foleyc-218), in female BALB/c mice was conducted following a single intraperitoneal and oral administration. […] The blood samples were collected from a set of […] mice at each time point in labeled micro centrifuge tube containing K2EDTA as anticoagulant. Plasma samples were separated by centrifugation at 4000 rpm for 10 min and stored below −70° C. until bioanalysis. After collection of blood sample, animals were humanely euthanized by carbon dioxide asphyxiation to collect liver from Group 1 and Group 2 at all the time points. The collected tissues were rinsed in PBS and were homogenized with nine times of liver weight in ice cold phosphate buffer saline (pH 7.4) and stored below −70° C. until bio-analysis. Total homogenate volume was ten times the tissue weight. All samples were processed for analysis by protein precipitation using acetonitrile and analyzed with fit-for-purpose LC-MS/MS method (LLOQ: 2.01 ng/mL for plasma and 50.30 ng/g for liver). Pharmacokinetic parameters were calculated using the non-compartmental analysis tool of Phoenix WinNonlin® (Version 6.3).

Another data set in a line: Cytotoxicity (Table 1). In kind it is cell-based.
Data set [3] deals with Trypanosoma cruzi parasites. The data set can be described thus: Trypanosoma cruzi in vitro IC50 (structure-activity analyses). The data set is classed as cell-based. To be noted: infection with Trypanosoma cruzi parasites for 72 hours and treatment with the compound for 72 hours. As to the method:
Select compounds described herein were evaluated for structure-activity analyses in vitro.

The mark [4] stands for this setting: ip, single intraperitoneal dose.

Like-named read-outs stand apart in the source and are kept apart here. Where only a bound is given, the exact number is not on record here.

Consider `CC(C)(C)[S@@+]([O-])N1Cc2cc(C(=O)NCc3ccc4c(c3)OCO4)nc(-c3ccccc3)c2[C@H]1CCO` [2015-foleyc-217, (R)-N-(benzo[d][1,3]dioxol-5-ylmethyl)-2-((R)-tert-butylsulfinyl)-3-(2-hydroxyethyl)-4-phenyl-2,3-dihydro-1H-pyrrolo[3,4-c]pyridine-6-carboxamide], for which the results for the concentration for a half-maximal effect (EC50) (in data set [1]; in the data set with P. falciparum Dd2) were 63 µM and 2.19 ± 0.32 µM, respectively. Further, the values for the Tmax in data set [2] (setting [4]) and in data set [2] (single oral dose) were 60 min and 30 min, respectively. Further, the “plasma concentrations quantifiable till” value in data set [2] (single intraperitoneal dose) and in data set [2] (single oral dose) was 12 h throughout.

For the compound `CC(C)(C)[S@@+]([O-])N1Cc2cc(C(=O)NCc3ccccc3F)nc(-c3ccccc3)c2[C@H]1CCO` [2015-foleyc-218, (R)-2-((R)-tert-butylsulfinyl)-N-(2-fluorobenzyl)-3-(2-hydroxyethyl)-4-phenyl-2,3-dihydro-1H-pyrrolo[3,4-c]pyridine-6-carboxamide], the EC50 in data set [1] is over 100 µM; in the data set on P. falciparum Dd2, 1.45 ± 0.28 µM. The time of peak concentration (Tmax) in data set [2] (setting [4]) stood at 60 min; in data set [2] (single oral dose), 30 min. Besides, the “plasma concentrations quantifiable till” value in data set [2] (single intraperitoneal dose) and in data set [2] (single oral dose) was 12 h each time.

As for `CC(C)(C)[S@@+]([O-])N1Cc2cc(C(=O)NCC(F)(F)F)nc(-c3cccc(-c4cccnc4)c3)c2[C@H]1CCO` [2015-foleyc-237, (R)-2-((R)-tert-butylsulfinyl)-3-(2-hydroxyethyl)-4-(3-(pyridin-3-yl)phenyl)-N-(2,2,2-trifluoroethyl)-2,3-dihydro-1H-pyrrolo[3,4-c]pyridine-6-carboxamide], the figures for the EC50 (in data set [1]; with P. falciparum Dd2) were over 100 µM and 5.84 ± 0.94 µM, respectively.

In the case of `CC(C)NC(=O)N1Cc2cc(C(=O)NCc3ccc4c(c3)OCO4)nc(-c3cccc(-c4cc5ccccc5o4)c3)c2[C@H]1CCO` [2015-foleyc-241, (R)-N^6-(benzo[d][1,3]dioxol-5-ylmethyl)-4-(3-(benzofuran-2-yl)phenyl)-3-(2-hydroxyethyl)-N^2-isopropyl-1,3-dihydro-2H-pyrrolo[3,4-c]pyridine-2,6-dicarboxamide], the EC50 was over 100 µM in data set [1] and 4.99 ± 0.59 µM in the data set on P. falciparum Dd2.

`CC(C)(C)[S@@+]([O-])N1Cc2cc(C(N)=O)nc(-c3cccc(-c4cccnc4)c3)c2[C@H]1CCO` [2015-foleyc-247]: the figures for the EC50 (in data set [1]; in the data set with P. falciparum Dd2) were over 100 µM and 1.48 ± 0.14 µM, respectively.

`CC(C)NC(=O)N1Cc2cc(C(N)=O)nc(-c3cccc(-c4cc5ccccc5o4)c3)c2[C@H]1CCO` [2015-foleyc-248, (R)-4-(3-(benzofuran-2-yl)phenyl)-3-(2-hydroxyethyl)-N^2-isopropyl-1,3-dihydro-2H-pyrrolo[3,4-c]pyridine-2,6-dicarboxamide]: the results for the 50% effective concentration (EC50) (in data set [1]; in the data set on P. falciparum Dd2) were over 100 µM and over 25 µM, respectively.

For the compound `CC(C)NC(=O)N1Cc2cc(C(=O)NCc3ccc4c(c3)OCO4)nc(-c3cccc(-c4cccnc4)c3)c2[C@H]1CCO` [2015-foleyc-253, (R)-N^6-(benzo[d][1,3]dioxol-5-ylmethyl)-3-(2-hydroxyethyl)-N^2-isopropyl-4-(3-(pyridin-3-yl)phenyl)-1,3-dihydro-2H-pyrrolo[3,4-c]pyridine-2,6-dicarboxamide], the values for the EC50 (in data set [1]; in the data set on P. falciparum Dd2) were 62 µM and 5.73 ± 0.33 µM, respectively.

Turning to `CC(C)NC(=O)N1Cc2cc(C(=O)NCc3ccccc3F)nc(-c3cccc(-c4cccnc4)c3)c2[C@H]1CCO` [2015-foleyc-254, (R)-N^6-(2-fluorobenzyl)-3-(2-hydroxyethyl)-N^2-isopropyl-4-(3-(pyridin-3-yl)phenyl)-1,3-dihydro-2H-pyrrolo[3,4-c]pyridine-2,6-dicarboxamide], the EC50 in data set [1] turned out to be 71 µM; with P. falciparum Dd2, 9.95 ± 0.89 µM.

Consider `CC(C)NC(=O)N1Cc2cc(C(=O)NCC(F)(F)F)nc(-c3cccc(-c4cccnc4)c3)c2[C@H]1CCO` [2015-foleyc-255, (R)-3-(2-hydroxyethyl)-N2-isopropyl-4-(3-(pyridin-3-yl)phenyl)-N6-(2,2,2-trifluoroethyl)-1,3-dihydro-2H-pyrrolo[3,4-c]pyridine-2,6-dicarboxamide], for which the EC50 in data set [1] is over 100 µM; with P. falciparum Dd2, 15.5 ± 0.75 µM.

With `CC(C)NC(=O)N1Cc2cc(C(=O)NCC(F)(F)F)nc(-c3ccccc3)c2[C@H]1CCO` [2015-foleyc-267, (R)-3-(2-hydroxyethyl)-N^2-isopropyl-4-phenyl-N^6-(2,2,2-trifluoroethyl)-1,3-dihydro-2H-pyrrolo[3,4-c]pyridine-2,6-dicarboxamide], the EC50 was over 100 µM in data set [1] and 3.5 ± 0.97 µM in the data set with P. falciparum Dd2.

With `CC(C)NC(=O)N1Cc2cc(C(=O)NCc3ccccc3F)nc(-c3cccc(-c4cc5ccccc5o4)c3)c2[C@H]1CCO` [2015-foleyc-268, (R)-4-(3-(benzofuran-2-yl)phenyl)-N^6-(2-fluorobenzyl)-3-(2-hydroxyethyl)-N^2-isopropyl-1,3-dihydro-2H-pyrrolo[3,4-c]pyridine-2,6-dicarboxamide], the EC50 in data set [1] was over 100 µM; with P. falciparum Dd2 it was 10.2 ± 0.94 µM.

In turn, `CCOC(=O)c1cc2c(c(-c3cccc(C#CCN(C)C)c3)n1)CN([S@+]([O-])C(C)(C)C)C2` [Compound 49, Ethyl (R)-2-(tert-butylsulfinyl)-4-(3-(3-(dimethylamino)prop-1-yn-1-yl)phenyl)-2,3-dihydro-1H-pyrrolo[3,4-c]pyridine-6-carboxylate] yielded a Cytotoxicity in “Cytotoxicity (Table 1)” of over 10 µM. Besides, half-maximal inhibition in data set [3] (IC50) required 862 nM.

The compound `CCOC(=O)c1cc2c(c(-c3cccc(Br)c3)n1)[C@@H](CCO)N([S@+]([O-])C(C)(C)C)C2` [Compound 51, Ethyl (R)-4-(3-bromophenyl)-2-((R)-tert-butylsulfinyl)-3-(2-hydroxyethyl)-2,3-dihydro-1H-pyrrolo[3,4-c]pyridine-6-carboxylate] showed a Cytotoxicity in “Cytotoxicity (Table 1)” of over 10 µM. The compound further yielded an IC50 in data set [3] of over 10000 nM.

For `CN(C)CC#Cc1cccc(-c2nc(C(=O)NCc3ccc4c(c3)OCO4)cc3c2CN([S@+]([O-])C(C)(C)C)C3)c1` [Compound 57, (R)-N-(Benzo[d][1,3]dioxol-5-ylmethyl)-2-(tert-butylsulfinyl)-4-(3-(3-(dimethylamino)prop-1-yn-1-yl)phenyl)-2,3-dihydro-1H-pyrrolo[3,4-c]pyridine-6-carboxamide], the Cytotoxicity in “Cytotoxicity (Table 1)” is over 10 µM. In addition, the IC50 in data set [3] came out at 495 nM.

For `CC(C)(C)[S@@+]([O-])N1Cc2cc(C(=O)NCc3ccc4c(c3)OCO4)nc(-c3cccc(Br)c3)c2[C@H]1CCO` [Compound 77, (R)-N-(Benzo[d][1,3]dioxol-5-ylmethyl)-4-(3-bromophenyl)-2-((R)-tert-butylsulfinyl)-3-(2-hydroxyethyl)-2,3-dihydro-1H-pyrrolo[3,4-c]pyridine-6-carboxamide], the Cytotoxicity in the data set “Cytotoxicity (Table 1)” was over 10 µM. In addition, the IC50 in data set [3] is over 10000 nM.

For `CN(C)CC#Cc1cccc(-c2nc(C(=O)NCc3ccc4c(c3)OCO4)cc3c2[C@@H](CCO)N([S@@+]([O-])C(C)(C)C)C3)c1` [Compound 85, (R)-N-(Benzo[d][1,3]dioxol-5-ylmethyl)-2-((S)-tert-butylsulfinyl)-4-(3-(3-(dimethyl-amino)prop-1-yn-1-yl)phenyl)-3-(2-hydroxyethyl)-2,3-dihydro-1H-pyrrolo[3,4-c]pyridine-6-carboxamide], in the data set “Cytotoxicity (Table 1)”, the Cytotoxicity is over 10 µM. Besides, in data set [3], the IC50 was determined as 43.7 nM.

The values are drawn from US12071436B2, “Anti-parasitic compounds and uses thereof” (Memorial Sloan-Kettering Cancer Center, priority 2016, dated 2024).
